Measured values: US5494909A, “Substituted oxazinoisoquinoline derivatives, pharmaceutical compositions containing them and process for preparing same” (priority 1991, dated 1996)

Columns and labels:
[1] = test system: genetically hypertensive rats (SHR); assay: The hypobaric hypoxia test; format: in vivo, rat (genetically hypertensive; details: Rattus norvegicus, 1 h; male SHR rats; 22.66 kPa; one hour after administration; protected = survival time 30% longer than control
Source text: The antihypoxic effect of the target compounds was studied on genetically hypertensive rats (SHR), which are particularly sensitive to hypoxic insults. Male rats weighing 210 to 230 g each were used for these experiments.
The hypobaric hypoxia test
The experimental animals were placed in pairs in a desiccator of 6 liters volume one hour after administration of the compound to be tested. The pressure in the desiccator was decreased to 22.66 kPa (170 mmHg) during 20 seconds. The time elapsing from this point until the last respiratory movement was measured. An animal was considered to be protected when its survival time was by 30% longer in comparison with the control group.

[2] = test system: Potassium-stimulated Ca uptake, synaptosomes prepared from rat brain; assay: Inhibition of potassium-stimulated calcium uptake into rat brain synaptosomes; details: for IC50: read-out: Inhibition of Potassium-stimulated Ca uptake IC50, 60 mmoles/l KCl, rat synaptosomes, pH 7.4, 37° C., 20 seconds
Source text: (§1) The calcium uptake-inhibitory effect of the compounds of the formula (I) according to the invention was studied on synaptosomes prepared from rat brain by using a method described in J. Neurochem.
(§2) Wistar rats weighing 180 to 200 g were decapitated and the brains were collected in ice-cold physiological saline, the cortex was removed and purified from the white matter. The tissue was homogenized by a glass-teflon potter in 10 volumes of a saccharose solution of 0.32 moles/liter concentration. The homogenate was centrifuged at 1000×g in a Janetzki K-70 centrifuge at 4° C. for 10 minutes, the supernatant was centrifuged at 12000×g in a Hitachi CR-26H centrifuge at 4° C. for 20 minutes. The sediment was suspended in a saccharose solution of 0.32 moles/liter concentration, then the protein content of the preparation was adjusted to 20 mg/ml.
Components of the solution used for incubation were as follows:
Incubation solution was saturated with oxygen containing 5% by volume of carbon dioxide until reaching a pH value of 7.4. The test compounds and the synaptosome preparation in an amount corresponding to 1 mg of protein were added into the incubation solution. The final volume of incubation was 1 ml. The samples were pre-incubated at 37° C. for 20 minutes.
The calcium uptake was initiated by addition of a 45CACl2 solution of 2.8 kBq (75 nCi) activity. Potassium chloride was used in a concentration of 60 mmoles/l for the investigation of potassium-stimulated calcium uptake; sodium chloride was added in the same concentration to the control samples.
The incubation time was 20 seconds. The reaction stopped by adding 5 ml of a stopping solution containing 120 mmoles/l of sodium chloride, 5 mmoles/l of potassium chloride, 5 mmoles/l of EGTA [ethylene glycol bis(β-aminoethyl)ether-N,N, N',N'-tetraacetic acid]and 20 mmoles/l of TRIS (pH 7.4).

[3] = test system: Veratrine-stimulated Ca uptake, synaptosomes prepared from rat brain; format: biochemical, rat (Wistar)
Source text: as §1, §2
Components of the solution used for incubation were as follows: […]
After placing the filter disks in glass cuvets, 10 ml of scintillation cocktail [containing 1000 ml of toluene, 400 ml of abs. ethanol, 10 ml of dioxane, 6 g of 2,5-diphenyloxazole and 0.15 g of 1,4-bis(5-phenyl-2-oxazolyl)benzene] and the radioactivity of the samples was measured by using an 1219 Rackbeta type liquid scintillation spectrophotometer (product of LKB Wallace Company).

[4] = Oral toxicity (LD50); details: in vivo
[5] = test system: excitatory amino acid receptor-dependent calcium channels; details: literature; cited from earlier work
[6] = qualitative / comparison with reference drug

Row | SMILES | ED50 [1] | IC50 [2] | veratrine-induced calcium uptake inhibitory effect (in words) [3, 6] | IC50 ([3]; veratrine 20 μmoles/l, rat synaptosomes, pH 7.4, 37° C., 20 seconds, read-out: Inhibition of Veratrine-stimulated Ca uptake IC50) | LD50 [4] | potassium-induced calcium uptake inhibitory effect (in words) [2, 6] | effect on excitatory amino acid receptor-dependent calcium channels (in words) [5]
1 | COCCOC(=O)C1=C(C)NC(C)=C(C(=O)OC(C)C)C1c1cccc([N+](=O)[O-])c1 (stereo not shown) [nimodipine, isopropyl 2methoxyethyl 1,4dihydro-2,6-dimethyl-4-(mnitrophenyl)-3,5-pyridinedicarboxylate, reference compound] | 8 mg/kg | 208 µM |  |  |  |  | 
2 | COc1cc2c(cc1OCc1ccccc1)CCN1C(=Nc3ccc(C)cc3)OCCC21.Cl (stereo not shown) [compound 1507136, 9-benzyloxy-10-methoxy-4-(p-tolylimino)-1,6,7,11b-tetrahydro-2H,4H-1,3-oxazino[4,3-a]isoquinoline hydrochloride] | 8 mg/kg | 23.9 µM | to a higher degree than flunarizine did | 0.29 µM | 1400 mg/kg | exceeds that of cinnarizine | 
3 | C[C@]12N[C@H](Cc3ccccc31)c1ccccc12 [MK-801, (+)-5-methyl-10,11-dihydro-5H-dibenzo[a,d]cyclohepten-5,10-imine] |  |  |  |  |  |  | inhibit the excitatory amino acid receptor-dependent calcium channels
4 | Fc1ccc(C(c2ccc(F)cc2)N2CCN(C/C=C/c3ccccc3)CC2)cc1 [flunarizine] | 50 mg/kg |  |  |  |  |  | 
